Experimental findings from article PMC8148055 (Acta Pharmaceutica Sinica. B, 2020) are described below.

The target of this series is sirtuin 6 (SIRT6) (Homo sapiens, UniProt Q8N6T7). Description: Fluor de Lys deacetylation assay. It is filed as biochemical.
Chain of sirtuin 6 (SIRT6) (Q8N6T7 2-355): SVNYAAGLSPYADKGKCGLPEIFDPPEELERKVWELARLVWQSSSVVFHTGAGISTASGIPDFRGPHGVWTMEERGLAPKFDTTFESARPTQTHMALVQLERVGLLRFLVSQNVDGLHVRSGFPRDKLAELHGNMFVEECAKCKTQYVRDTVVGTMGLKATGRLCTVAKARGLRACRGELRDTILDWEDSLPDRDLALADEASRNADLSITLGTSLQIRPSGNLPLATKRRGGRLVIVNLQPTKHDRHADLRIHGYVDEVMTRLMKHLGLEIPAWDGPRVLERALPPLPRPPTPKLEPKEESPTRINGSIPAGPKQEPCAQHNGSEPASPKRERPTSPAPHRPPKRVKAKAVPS

In the case of MDL-801-E1, the “Fluor de Lys deacetylation assay (about 4-fold activation)” value is reported as ~ 4 fold.
